Paper PMC9996622 (ACS Omega, 2023)

Biological target: T1, DnaE1 (Mycobacterium tuberculosis, UniProt P9WNT7)
T1 sequence (P9WNT7 1-1184): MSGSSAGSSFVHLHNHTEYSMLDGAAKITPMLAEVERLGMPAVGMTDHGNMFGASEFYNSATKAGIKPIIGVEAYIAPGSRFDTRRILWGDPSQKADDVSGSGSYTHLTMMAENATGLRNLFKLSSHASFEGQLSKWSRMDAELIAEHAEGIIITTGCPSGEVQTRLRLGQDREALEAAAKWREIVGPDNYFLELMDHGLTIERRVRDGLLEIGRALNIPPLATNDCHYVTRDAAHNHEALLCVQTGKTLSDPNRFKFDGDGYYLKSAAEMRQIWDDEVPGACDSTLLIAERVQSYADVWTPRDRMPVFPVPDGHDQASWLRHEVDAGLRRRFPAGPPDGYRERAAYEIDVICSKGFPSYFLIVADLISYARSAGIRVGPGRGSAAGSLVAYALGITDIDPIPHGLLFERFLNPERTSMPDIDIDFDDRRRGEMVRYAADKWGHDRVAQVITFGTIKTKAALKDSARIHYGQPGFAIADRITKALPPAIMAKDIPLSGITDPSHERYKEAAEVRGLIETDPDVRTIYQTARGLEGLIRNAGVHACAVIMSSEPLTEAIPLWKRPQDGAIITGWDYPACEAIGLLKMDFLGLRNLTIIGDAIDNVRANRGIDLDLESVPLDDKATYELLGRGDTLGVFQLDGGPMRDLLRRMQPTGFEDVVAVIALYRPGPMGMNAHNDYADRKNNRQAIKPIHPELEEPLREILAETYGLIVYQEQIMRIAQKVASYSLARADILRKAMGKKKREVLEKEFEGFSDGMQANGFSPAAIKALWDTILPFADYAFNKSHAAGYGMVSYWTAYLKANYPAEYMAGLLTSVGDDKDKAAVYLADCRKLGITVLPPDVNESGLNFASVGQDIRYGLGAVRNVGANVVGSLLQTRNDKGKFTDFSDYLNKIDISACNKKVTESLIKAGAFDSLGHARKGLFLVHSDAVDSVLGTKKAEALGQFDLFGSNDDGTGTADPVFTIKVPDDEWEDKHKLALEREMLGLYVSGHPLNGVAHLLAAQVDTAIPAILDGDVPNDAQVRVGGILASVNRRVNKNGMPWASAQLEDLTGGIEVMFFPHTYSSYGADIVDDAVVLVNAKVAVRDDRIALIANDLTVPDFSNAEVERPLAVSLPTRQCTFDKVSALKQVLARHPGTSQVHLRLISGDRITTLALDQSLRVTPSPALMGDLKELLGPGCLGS
Assay: 2-aminopurine fluorescence exonuclease assay, dose-response
Type: biochemical

OC[C@H]1O[C@@H](n2cnc3c(S)ncnc32)[C@H](O)[C@@H]1O [6-thioinosine]
IC50: 64 µM
